Tested on: Pseudomonas aeruginosa ATCC 15442
Experiment: Suspension test: log reduction of Pseudomonas aeruginosa after a specified contact time
Type: cell-based
Procedure: The target organism Pseudomonas aeruginosa ATCC 15442 was taken from freezer stocks and grown for 24 hours on tryptone soy agar (TSA) at 37° C. A second subculture was produced from the first and grown with the same conditions. A test suspension was then created by adding loopfuls of organism to tryptone buffered saline and adjusting the cell concentration to 1×10^8 and 5×10^8 CFU/ml using an internally established calibration curve spectrophotometer at a wavelength of 600 nm. To establish the precise CFU/ml a 1 ml aliquot was then taken from the test suspension and serially diluted down to 10^−6 and 10^−7, 1 ml of each dilution was then plated in duplicate using the pour plate method on to TSA. The plates were then incubated for 24 hours at 37° C. and enumerated.
For each Active Ingredient tested a series of 3 samples were prepared in sterile distilled water;
Test sample 1—Active Ingredient alone (to measure basic efficacy of the Active Ingredient)
Test sample 2—Active Ingredient in combination with polyglyceryl-10 caprylate/caprate (to measure the efficacy of the combination of active ingredient and polyglycerol ester)
Control—A control sample of polyglyceryl-10 caprylate/caprate was prepared in deionized water to measure the efficacy of polyglycerol ester alone.
Each test sample was prepared at a concentration 10% higher than that of the target concentration to account for the dilution effect from the addition of the test organism suspension during the test procedure.
A test mixture was prepared by adding a 0.1 ml aliquot of test organism suspension to a tube followed by 0.9 ml of test sample (prepared as above). The combination was then mixed and a timer started immediately.
Upon achieving the specified contact time the test mixture was deactivated by adding a 0.1 ml aliquot of the test mixture to 0.9 ml of neutralizing broth and the whole solution mixed. The solution was left for 5 minutes to ensure the action of the active ingredient was effectively neutralized.
To quantify the surviving number of organisms in the neutralized test mixture, 4×0.025 ml aliquots were taken and spot plated onto the surface of dried TSA. The plates were then incubated for 24 hours at 37° C.
For spot plating, colonies from the incubated plates were enumerated using the lower count limit of <1 and the upper count limit of >150. […] For the upper limit, if 156 colonies were counted on a plate, >150 would be recorded and 150 would be used for the calculation.
[formula] • N0 is the number of cells per ml in test mixture at the beginning of contact time. It is one-tenth of the weighted mean of N due to the tenfold dilution by the addition of the test product.
Enumeration and Calculation of T (Test Mixture) • First, the mean average of cfu per 0.025 ml spots was established using the below calculation;
Log Reduction Calculations (N0− T) • Before calculating the log reduction both N0 and T were converted into a logarithm base 10 value. For example;
To calculate the final log reduction the following calculation was used;
The test procedure outlined above was used to test for synergy between polyglyceryl-10 caprylate/caprate (PG10CC) and the various active ingredients listed in Table 1. Varying concentrations were prepared and were tested at the times listed in Table 1 for the presence of Pseudomonas aeruginosa.

## O=c1[nH]sc2ccccc12
Benzisothiazoline 100 ppm, contact time 48 hours
  Log Reduction: 3.84

## O=C(O)c1ccccc1 [Benzoic acid]
Benzoic acid 2000 ppm, contact time 2 hours
  Log Reduction: <2.85

## O=C(O)CO [Glycolic acid]
Glycolic acid 1000 ppm, contact time 30 minutes
  Log Reduction: 2.85

## CC(O)C(=O)O (stereo not drawn) [Lactic acid]
Lactic acid 2000 ppm, contact time 3 hours
  Log Reduction: 4.03

## [H]/N=C(\N/C(=N/[H])NCCCCCCNC(=N)NC(=N)Nc1ccc(Cl)cc1)Nc1ccc(Cl)cc1 [chlorohexidine]
Chlorohexidine 64 ppm, contact time 5 minutes
  Log Reduction: 3.44

## Zinc pyrithione
Zinc pyrithione 400 ppm, contact time 7 days
  Log Reduction: 2.88

— patent US20230157282A1, “Synergistic Preservative/Personal Care Composition With A Polyglycerol Ester” (ARCH UK BIOCIDES LTD, priority 2020, published 2023)
